Results published in patent US6740680B1, “Pharmaceutical compositions to tetrac and methods of use thereof” (Becton Pharma, Inc., priority 1999, dated 2004).

What was measured:
α-MHC mRNA = test: Northern blot, α-MHC mRNA in heart; format: in vivo, rat; settings: infused rats, adjusted group mean at the mean Ln (TSH) concentration
Description: (§1) Seventy-nine male SIVZ rats were purchased from the breeder (Institut für Labortierkunde des Universität Zürich, Zürich, Switzerland). They were rendered hypothyroid by a single injection of [^131I]Na (100 μCi/rat) and before and throughout the experiment 0.02% 2-mercapto-1-methylimidazol (MMI) was added to drinking water. In order to have an euthyroid control group of similar weight and identical age, 10 rats received only MMI in the drinking water and 2 weeks before implanting the minipumps, MMI was withdrawn. Osmotic minipumps (secretion rate 0.25 μl/hour, duration 14 days) were implanted intraperitoneally (i.p.) 2 months after the injection of [^131I]Na. The minipumps were filled with T4 or Tetrac dissolved in 0.05 N NaOH, 2% BSA and 100,000 cpm [^125I]T4 or [^125I]Tetrac as control of their secretion rates. The infusion lasted 13 days. 0, 1.5, 4.5, 13.5 and 40.5 nmol Tetrac/day/100 g or 0.5, 1.5, 4.5 and 13.5 nmol T4/day/100 g bodyweight (BW) (n=4/dose) were infused. An euthyroid control group was included. The animals were weighed every 2 days. Rats were sacrificed by decapitation and blood was collected and stored at […] until use. Tissues (liver, heart, brown adipose tissue, cerebral cortex and pituitary) were removed rapidly, frozen in liquid nitrogen and stored at […] until use.
(§2) Total RNA extraction and Northern Blot hybridization Total RNA was extracted with the method of Chomczynski and Sacchi (Chomczynski, P. and Sacchi, N. Anal. Biochem. (1987) 162: 156-159). […]
(§3) The amount of labeled mRNA was quantified by scanning laser densitometry (Phosphorimager, Molecular Dynamics; Sunnyvale, USA). Variations in RNA loading and membrane transfer were corrected by densitometric quantification of a negative photograph of 28S and 18S ribosomal RNA bands from ethidium bromide stained RNA gels. […]

GH mRNA = test: Northern blot, growth hormone mRNA in pituitary; format: in vivo, rat
Description: as §1, §2, §3

[1] = test system: monodeiodinase type 1 mRNA; test: Northern blot, hepatic monodeiodinase type 1 mRNA; format: in vivo, rat; settings: Liver
Description: as §1, §2, §3

Monodeiodinase type 2 [2] = test: Monodeiodinase type 2 activity in brain cortex and brown adipose tissue of infused rats; format: in vivo, rat; settings: infused rats, remaining activity, adjusted group mean at the mean Ln (TSH) concentration
Description: as §1
(§4) Monodeiodinase type 1 and 2 activities. Monodeiodinase type 1 and type 2 activities were determined in tissue homogenates by measuring the release of radioiodide from [^125I]rT3 according to the method of Leonard and Rosenberg (Leonard, J. L. et al. Endocrinology (1980) 106: 444-451).
(§5) Monodeiodinase type 1 activity was measured in liver homogenates using 1 μM rT3 and 1 mM DTT with 10 min of incubation, whereas for heart, 0.01 μM rT3 and 10 mM DTT with 1 hour of incubation. Monodeiodinase type 2 activity was measured in brown adipose tissue (BAT) and cerebral cortex using 1 nM rT3, 10 mM DTT and 1 mM propylthiouracil (PTU) with 1 hour of incubation. Protein concentrations were measured by the method of Bradford (Bio-Rad Laboratories GmbH, Munich, Germany) with bovine gammaglobulin as the protein standard. In order to study the effect of circulating Tetrac on the enzyme activities, 2 rats were injected intraperitoneally with 10 μCi ^125I Tetrac and killed 6 hours later. The tissue homogenates were extracted with 3 volumes of ethanol-NH3 (97:3). After 10 minutes centrifugation at 15,000 g, the supernatant was vacuum dried and applied to TLC (Merck 254, Toluol, acetic acid, water: 2:2:1). In order to calculate the tissue concentrations, the highest serum Tetrac levels were used (406 pmol/ml). The calculated tissue concentrations were: liver: 1.9, heart: 2.29 and brain cortex: 0.47 fluol Tetrac/μg protein.

Monodeiodinase type 2 [3] = molecular target: T1, Monodeiodinase type 2 (Rattus norvegicus, UniProt P70551); test: Addition of Tetrac to monodeiodinase type 2 assay with microsomal protein from brain cortex; format: biochemical; settings: 1 fmol Tetrac/μg protein added
T1 construct: monodeiodinase type 2 assay using microsomol protein from brain cortex; from tissue; host or cells: brain cortex microsomal protein
T1 sequence (P70551 1-266): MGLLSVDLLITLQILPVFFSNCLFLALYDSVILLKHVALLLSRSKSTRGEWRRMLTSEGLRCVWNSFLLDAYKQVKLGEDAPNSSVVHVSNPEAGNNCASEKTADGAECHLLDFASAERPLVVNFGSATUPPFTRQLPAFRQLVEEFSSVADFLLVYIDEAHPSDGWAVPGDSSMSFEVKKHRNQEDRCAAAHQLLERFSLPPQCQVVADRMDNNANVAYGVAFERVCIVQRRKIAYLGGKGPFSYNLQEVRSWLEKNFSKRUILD
Description: as §4
as §5, with “In order to calculate the tissue concentrations, the highest serum Tetrac levels were used (406 pmol/ml).” left out, “protein. […]” for “protein.”

[4] = infused rats, adjusted group mean at the mean Ln (TSH) concentration

With `O=C(O)Cc1cc(I)c(Oc2cc(I)c(O)c(I)c2)c(I)c1` [Tetrac, 3,3′,5,5′-tetraiodothyroacetic acid] the “α-MHC mRNA, adjusted mean” value (α-MHC mRNA) was 5.3 arbitrary units, the “GH mRNA, Tetrac/T4 (activity of Tetrac in % of T4)” value (GH mRNA) was 71% and the “GH mRNA, adjusted mean” value (GH mRNA; [4]) was 20280 arbitrary units. For the same compound, the “Residual Monodeiodinase type 1 mRNA, Tetrac/T4 (activity of Tetrac in % of T4)” value ([1]; at equal serum TSH concentration) was 49%, the “Residual Monodeiodinase type 1 mRNA, adjusted mean” value [1, 4] was 2.48 arbitrary units and the “Residual monodeiodinase type 2 activity, adjusted mean” value (Monodeiodinase type 2 [2]; BAT) was 28. For the same compound, the “Residual monodeiodinase type 2 activity, adjusted mean” value (Monodeiodinase type 2 [2]; Brain Cortex) was 27.7 and the “Monodeiodinase type 2 activity, % of the full activity” value (Monodeiodinase type 2 [3]) was 90.5%.
